One experiment has as its system atherosclerosis. The note with it: immunization with peptide or peptide combination; WO 02/080954 Table B; cited from earlier work.
Experiment [1] deals with IFN-γ expression of dendritic cells (DCs). In words: Flow cytometric analysis of intracellular IFN-γ expression of dendritic cells (AngII model). The experiment is classed as in vivo, mice. The note with it: ± SEM of CD11c-gated cells. Background: Flow cytometry measures light scatter and fluorescence of single cells or particles in a stream.
Another experiment deals with AT1 receptor (AT1R). Nature of the experiment: Aortic AT1 receptor expression by Western blot (AngII model). The experiment is classed as in vivo, mice. To be noted: ± SEM; N = 6. For orientation: Immunoblotting shows a protein as a band on a membrane.
The subject of another experiment is TNP. Nature of the experiment: TNP-LPS immunization after p210 immunization, TNP IgG titer. To be noted: prior p210 immunization vs PBS or cBSA/alum; 100 μg TNP-LPS i.p. The experiment is classed as in vivo, Male C57/BL6 mice. From the text:
(§1) The coating concentration was optimized in pilot experiments.

A further experiment has as its system superoxide. Nature of the experiment: Aortic superoxide production by in situ dihydroethidine method (AngII model). The experiment is classed as in vivo, mice. To be noted: ± SEM; N = 9.
For another experiment, the system named is bone marrow derived DCs. Nature of the experiment: Cytolytic activity of CD8(+) T-cells from immunized mice against dendritic cells in vitro. The experiment is classed as cell-based. The protocol: (§2) The method for generating BMDC with GM-CSF was adapted from previous publication with modification see reference (19). Briefly, bone marrow cells from femurs and tibiae of male apoE−/− mice were plated into 10 cm culture plates (Falcon) with 20 ml complete RPMI-1640 containing 10 ng/ml GM-CSF (R&D Systems) and 10 ng/ml IL-4 (Invitrogen). Cells were washed and fed on day 3 and day 5 by removing the old medium followed by replenishing with fresh culture medium with GM-CSF and IL-4. On day 8, the immature DC appeared as non-adherent cells under the microscope and harvested by vigorous pipetting and subcultured into new culture plates with 2×10^5 DCs in 1.5 ml medium.
CD8(+) T-cells were negatively isolated using a CD8 selection Dynabeads kit (Invitrogen) per manufacturer's protocol. […] After co-culture for 4 hours, cells were collected and processed for flow cytometric determination of CD11c and 7-AAD by LSR II flow cytometer (BD Biosciences) and data was analyzed with Summit V4.3 software. Dendritic cell death without CD8(+) T-cells in the co-culture was used as baseline and percentage of specific lysis of cells was calculated using a method described previously, see reference (20). […]
Applicants therefore assessed the effect of the vaccine on cytotoxic activity of CD8^+ T cells against syngeneic bone marrow-derived DCs. […]

The subject of experiment [2] is Male apoE KO mice. In words: AngII-induced aortic aneurysm formation, rupture and survival after immunization.
Description: Fourteen P210, 17 cBSA, 16 PBS, and 8 Saline injected mice were examined.
AngII (1000 ng/Kg/min) was delivered by a subcutaneous osmotic pump implanted at 10 weeks of age for 4 weeks to cause aneurysms in all three groups. Saline was delivered to the control group. Mice were sacrificed at 14 weeks of age of age. The mice were fed normal chow for the duration of experiment.
42 P210, 46 cBSA, 37 PBS, and 8 Saline injected mice were examined.
AngII (1000 ng/Kg/min) was delivered by a subcutaneous osmotic pump implanted at 10 weeks of age for 4 weeks to cause aneurysms in all three groups. Saline was delivered to the control group. Mice were sacrificed at 14 weeks of age of age. The male apoE KO mice were fed normal chow for the duration of experiment.
AngII (1000 ng/Kg/min) was delivered by a subcutaneous osmotic pump implanted at 10 weeks of age for 4 weeks to cause aneurysms in all three groups. Saline was delivered to the control group. Mice were sacrificed at 14 weeks of age of age. 42 P210, 46 cBSA, 37 PBS, and 8 Saline injected mice were examined. Mice were sacrificed at 14 weeks of age. The male apoE KO mice were fed normal chow for the duration of experiment.
At 10 weeks of age, mice were subcutaneously implanted with an osmotic pump which released AngII (1 mg/Kg/min), and were euthanized 4 weeks later.
Another experiment has as its system KLH. In words: KLH immunization after p210 immunization, KLH IgG titer. The experiment is classed as in vivo, Male C57/BL6 mice. To be noted: prior p210 immunization vs PBS or cBSA/alum; 100 μg KLH s.c. at 13 and 15 weeks.
Description: as §1

Experiment [3] has as its system naïve male apoE (−/−) recipient mice. In words: Adoptive transfer of lymphocytes from immunized donors, aortic atherosclerosis in recipients. The experiment is classed as in vivo. To be noted: 2×10^7 donor B-cells/mouse. The source says:
Male apoE (−/−) mice on regular chow received subcutaneous immunization as described in previous paragraph and were sacrificed at 13 weeks of age as donors. Splenocytes from the same treatment group were pooled before cell isolation. Donor CD8(+) T-cells, CD4(+)CD25(+) T-cells or B-cells were isolated using Dynabeads FlowComp (Invitrogen) according to the manufacturer's protocols. CD4(+) T-cells were negatively selected from the splenocytes followed by positive selection of CD4(+)CD25(+) cells. B cells were negatively isolated whereas CD8(+) T-cells were positively isolated first and released from beads. The purity of pooled CD8(+) T-cells, CD4(+)CD25(+) T-cells and B-cells was 90%, 80% and 70%, respectively. The isolated CD8(+) T-cells (1×10^6 cells/mouse), CD4(+)CD25(+) T-cells (1×10^5 or 3×10^5 cells/mouse) or B-cells (2×10^7 cells/mouse) were then adoptively transferred to naïve male apoE (−/−) recipient mice at 6-7 weeks of age via tail vein injection. In the published literatures of vascular biology, the number of adoptively transferred lymphocytes varied greatly. For B-cells transfer, the number of 2×10^7 cells/mouse was chosen based on two prior reports, see references (11),(12). For CD4(+)CD25(+) T-cells transfer, the number of cells transferred ranged from 5×10^4 cells/mouse to 1×10^6 cells/mouse in the published literature see references (13),(14),(15). […]

The subject of experiment [4] is Male apoE KO mice. Nature of the experiment: Blood pressure and heart rate in AngII-infused immunized mice. The experiment is classed as in vivo. The protocol: Saline was delivered to the control group.
Angiotensin II infusion via implanted osmotic pump was started at 10 weeks of age. Mice were euthanized at 14 weeks of age. Blood pressure was measured throughout the duration of experiment.

In another experiment the test system is Granzyme B. In words: Granzyme B level in CD8(+) T-cells from immunized mice. The experiment is classed as cell-based. The note with it: compared to PBS or cBSA/alum group. The protocol:
(§3) Flow cytometric analysis was performed using standard protocols with antibodies listed in Table 1 below and a FACScan (Becton Dickinson) or a CyAn ADP analyzer (Beckman Coulter). For intracellular cytokine staining, Brefeldin A (3 μg/ml) was added to the cultured cells for 2 hours before cells subject to staining procedure. Cell membranes were permeabilized for staining intracellular molecules.

The next experiment has as its system BMDCs. In words: Endocytosis of FITC-labeled p210 by DCs in vitro. The experiment is classed as cell-based, mice. The note with it: p210 labeled with FITC; FITC fluorescence in BMDCs. The protocol:
as §2
Peptide loading on BMDCs was defined using p210 labeled with FITC (FITC conjugating kit from Pierce).

A further experiment has as its system Male apoE (−/−) mice. In words: p210 immunization, aortic atherosclerosis (en face Oil Red O; aortic sinus immunohistochemistry). The experiment is classed as in vivo. From the text:
Selection of peptides and their preparation for immunization The establishment and screening of human apoB-100 peptides has been reported (8). Based on Applicants pilot experiments and prior reports, see references (9),(10) Applicants selected peptide 210 (p210, KTTKQ SFDLS VKAQY KKNKH—SEQ ID NO: 210) as a candidate immunogen. Native p210 peptide (Euro-Diagnostica AB, Sweden) was conjugated to cationic bovine serum albumin (cBSA) as carrier using a method described previously see references (3), (4) Alum was used as adjuvant and mixed with peptide/cBSA conjugate with 1:1 ratio in volume. Peptide conjugation and mixing with alum were prepared fresh prior to each immunization.
Male apoE (−/−) mice (Jackson Laboratories) were housed in an animal facility accredited by the American Association of Accreditation of Laboratory Animal Care and kept on a 12-hour day/night cycle with unrestricted access to water and food. The Institutional Animal Care and Use Committee of Cedars-Sinai Medical Center approved the experimental protocols. […] Mice, maintained on normal chow diet, received subcutaneous primary immunization in the dorsal area between scapulas at 6-7 weeks of age, followed by a booster at 9 and 12 weeks of age. One week after last booster, diet was switched to high cholesterol chow (TD 88137, Harlan-Teklad) and continued until euthanasia at the age of 25 weeks. Separate groups of mice receiving PBS or cBSA/alum at the same immunization time-points served as control. Some mice were sacrificed at 8 or 13 weeks of age to assess immune response against p210.
At euthanasia the hearts were harvested and embedded in OCT compound (Tissue-Tek) for cryo-section. Whole aortas were cleaned, processed and stained with Oil Red 0 to assess the extent of atherosclerosis en face with computer-assisted histomorphometry, see references (3),(4).
The sections from aortic sinus were stained with MOMA-2 (Serotec), or CD11c (eBioscience) antibody to identify macrophages or dendritic cells immunohistochemically using standard protocol. Oil-Red-O stain for plaque size was done using standard protocol. […]

The test system of a further experiment is CD11c(+) dendritic cells. In words: Flow cytometric analysis of dendritic cells at immunization site and lymph nodes. The experiment is classed as in vivo, mice. To be noted: 1 week after the third immunization; compared with cBSA/alum group. The protocol: as §3
Since DCs are the major cell type upstream to both cellular and humoral immune responses, Applicants determined if these cells were affected by the immunization strategy. […]

Another experiment concerns Perforin. Nature of the experiment: Perforin level in CD8(+) T-cells from immunized mice. The experiment is classed as cell-based. To be noted: compared to PBS or cBSA/alum group. The protocol:
as §3

A further experiment relates to CD8^+ CD25^− T cells. Nature of the experiment: Presentation of p210 by DCs to CD8+ CD25− T cells in vitro. The experiment is classed as cell-based, mice. The note with it: 48 hours; DCs loaded with p210 and treated with LPS; compared to untreated or LPS only. From the text:
The p210 peptide contains the proteoglycan binding site of the apoB-100 molecule. This peptide is a cell-penetrating peptide capable of efficiently delivering antigens for cross-presentation to cytotoxic CD8^+ T cells.^53 Applicants therefore assessed activation of CD8^+ CD25^− T cells co-cultured with DCs loaded with p210 and matured with LPS.

Where [5] appears, read: AngII pump 4 weeks, total 14 p210, 17 cBSA.
[6] abbreviates: 100 μg s.c., three immunizations, high cholesterol chow, euthanasia at 25 weeks.

Take “EEEML ENVSL VCPKD ATRFK (EEEMLENVSLVCPKDATRFK) [p1]”: the “percentage reduction (atherosclerosis)” value in the experiment with atherosclerosis was 31%.
“HTFLI YITEL LKKLQ STTVM (HTFLIYITELLKKLQSTTVM) [p301]”: the “percentage reduction (atherosclerosis)” value in the experiment on atherosclerosis is given as 55.2%.
In the case of “IEIGL EGKGF EPTLE ALFGK (IEIGLEGKGFEPTLEALFGK) [p45]”, in the experiment on atherosclerosis, the “percentage reduction (atherosclerosis)” value is listed as 47.4%.
In the case of “KTTKQ SFDLS VKAQY KKNKH (KTTKQSFDLSVKAQYKKNKH) [p210]”, in [1] (N = 6), the “LN CD11c+CD86+IFN-γ+ DCs” value was 26.7 ± 1.6 percentage. In addition, the “Spleen CD11c+CD86+IFN-γ+ DCs” value in [1] (N = 8) stood at 19.5 ± 1.6 percentage. Further, the “Aortic AT1R” value in the experiment with AT1 receptor (AT1R) is recorded as 1.0 ± 0.2 arbitrary densitometric unit. Moreover, the TNP-IgG titer entry with TNP is on record as “no difference”. Besides, the Aortic superoxide production in the experiment on superoxide was 1.1 ± 0.1 arbitrary fluorescent intensity unit. In addition, the “percent lysis relative to basal lysis, Normal medium” value in the experiment on bone marrow derived DCs (CD8:DC 3:1, 4 hours, 10% FBS, CD11c-gated cells, N = 11) is listed as “significantly increased the percentage of DC death”. Also, in the experiment on bone marrow derived DCs (FIG. 15, panel B), the “cytolytic activity of CD8+ T cells after depletion of CD25+ cells” value is reported as “abrogated the increased cytolytic activity”. In the experiment with Male apoE KO mice [2] (8 aortic segments, AngII pump), the “Aneurysmal segment/total segment (%)” value is given as 14.3%. In the experiment with Male apoE KO mice [2] (28 days after osmotic pump implantation for Ang II infusion, 42 P210, 46 cBSA mice), the “Survival at 28 days” value amounted to 90.5%. The same substance returned an Aneurysm incidence with Male apoE KO mice [2] (Ang II pump, 42 P210, 46 cBSA mice) of 54.8%. In addition, in the experiment on Male apoE KO mice [2] (setting [5]), the “Aneurysm (include Rupture) (number of mice)” value is reported as 8; the “Rupture (number of mice)” value is recorded as 1; the “Rupture incidence (%, total)” value worked out at 7.1%; the “alive (number of mice)” value is listed as 13. The KLH-IgG titer entry in the experiment on KLH is “no difference”. The “atherosclerosis in recipients of B cells” value in experiment [3] is given as “did not affect atherosclerosis”. In addition, the “reduction in blood pressure” value in the experiment with Male apoE KO mice [4] (4 weeks after pump implantation (FIG. 11)) is recorded as about 11%. In addition, the “change in heart rate” value in the experiment on Male apoE KO mice [4] (4 weeks after pump implantation (FIG. 12A)) is on record as about 7%. The “Mean Arterial Blood Pressure (BP)” value in the experiment on Male apoE KO mice [4] (± SEM at 13 weeks of age, p210 N = 9, cBSA N = 7) stood at 124 ± 4 mmHg. Besides, in the experiment with Granzyme B, the “Granzyme B level in CD8(+) T-cells” value is listed as “higher level of Granzyme B”. Moreover, in the experiment with BMDCs, the “uptake of FITC-labeled p210 by dendritic cells” value was “uptake of p210 by dendritic cells”. Also, the “percentage reduction (atherosclerosis)” value in the experiment with atherosclerosis is 57.9%. Also, in the experiment with Male apoE (−/−) mice (setting [6]), the “reduction of aortic atherosclerosis compared to PBS group” value is listed as 57% and the “reduction of aortic atherosclerosis compared to cBSA/Alum group” value is recorded as 50%. Moreover, the “athero-reduction, dose comparison” value with Male apoE (−/−) mice (pilot experiment, 100 μg dose compared to 25 or 50 μg dose) was “optimum athero-reduction”. Further, the “CD11c(+)CD86(+) cells in lymph nodes” value with CD11c(+) dendritic cells was “reduced CD11c(+)CD86(+) cells in lymph nodes”. Also, the “perforin level in CD8(+) T-cells” value in the experiment on Perforin was “no difference in perforin level”. Moreover, the “CD8+ CD25+ T cells after co-culture with p210-loaded DCs” value in the experiment with CD8^+ CD25^− T cells is recorded as “significantly increased CD8^+ CD25^+ T cells”.

Values taken from patent publication US20130302362A1, “Immunomodulatory Compositions, Methods and Systems Comprising Immunogenic Fragments of ApoB-100” (CEDARS-SINAI MEDICAL CENTER, priority 2010, published 2013).
